This note sets out measurements from US8329704B2, “Substituted pyrazinone derivatives for use in MCH-1 mediated diseases” (Janssen Pharmaceutica, N.V., priority 2005, dated 2012).

T1 sequence (Q99705 whole entry): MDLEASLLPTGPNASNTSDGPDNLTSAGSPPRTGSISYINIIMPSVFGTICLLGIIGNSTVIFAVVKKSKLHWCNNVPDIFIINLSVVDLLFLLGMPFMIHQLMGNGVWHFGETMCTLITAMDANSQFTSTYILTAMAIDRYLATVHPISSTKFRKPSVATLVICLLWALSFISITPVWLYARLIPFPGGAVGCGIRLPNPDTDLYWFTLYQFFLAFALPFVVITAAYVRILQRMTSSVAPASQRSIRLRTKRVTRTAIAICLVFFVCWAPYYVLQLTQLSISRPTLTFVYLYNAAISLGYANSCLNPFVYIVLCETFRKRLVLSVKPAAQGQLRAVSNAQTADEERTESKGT

The test addresses T1, human MCH-1 receptor (Homo sapiens, UniProt Q99705).
T1 construct: expressed in transfected cells
As to the kind of experiment: Ca2+ mobilization experiment for the MCH-1 receptor (FLIPR), inhibition of MCH-induced Ca2+ mobilization. Format: cell-based. As to conditions: CHO cells stably expressing human MCH-1 receptor, inhibition of MCH-induced Ca2+ response, read-out: MCH-1 pIC50 (converted). The procedure: The interaction of the compounds of Formula (I) with MCH-1 receptors was assessed in in vitro transient calcium (Ca^2+) mobilization assays in the fluorimetric imaging plate reader (FLIPR) format (Sullivan et al. 1999, Methods Mol Biol 114:125-133). In general, the natural agonist (MCH) is incubated with cells expressing the MCH-1 receptor, which elicits a concentration-dependent transient mobilization of Ca^2+ from internal stores. The interaction of the test compounds with the receptor is assessed in competition experiments. Various concentrations of the test compound are added to the incubation mixture containing the receptor-expressing cells and a submaximal concentration of MCH. The test compound in proportion to its antagonist potency and its concentration inhibits MCH-induced Ca^2+ mobilization.
Chinese Hamster ovary cells (CHO) stably expressing the human MCH-1 receptor are grown in a 1:1 mixture of Dulbecco's Modified Eagles Medium (DMEM) and HAM's F12 medium including Glutamax™ (Invitrogen), supplemented with 10% heat-inactivated fetal bovine serum and 400 μg/ml geneticin.
Twenty-four hours before the experiment, MCH-1 receptor-expressing CHO cells are seeded in 20 μl (5,000 cells per well) into 384-well black wall, clear bottom microtiter plates (Costar). On the day of the experiment, 20 μl per well calcium assay kit containing 10 mM probenicide (Molecular Devices) is added. Cells are loaded for 90 min at 37° C. and 5% CO2 in a cell culture incubator. After loading, 20 μl of serial dilutions of the test compound are added and cells are further incubated for 20 min at room temperature in the dark. After 20 min, 20 μl of a submaximal MCH concentration is added and changes in intracellular calcium are recorded directly in a FLIPR III apparatus (Molecular devices).
Data from assays in the presence of compound were calculated as a percentage of total Ca^2+-responses measured in the absence of test compound. Inhibition curves, plotting percent of total Ca^2+-responses versus the log value of the concentration of the test compound, were automatically generated, and sigmoidal inhibition curves were fitted using non-linear regression. The pIC50 values of test compounds were derived from individual curves.
For `COc1cc(-n2ccnc(NCCc3ccccc3)c2=O)ccc1OCCN1CCOC[C@@H]1C` [3-60], the IC50 is 63.1 nM. For `COc1cc(-n2ccnc(NCCc3ccccc3)c2=O)ccc1OCCN1CCC2(CC1)OCCO2` [3-58], the IC50 is 50.1 nM. Next, `COc1cc(-n2ccnc(NCCOc3ccccc3)c2=O)ccc1N1CCC(N(C)C(=O)C(C)C)C1` (stereo not shown) [1-11]: 100 nM; `O=c1c(NCCOc2ccccc2)nccn1-c1ccc(N2CCNCC2)cc1` [1-06]: 2000 nM. On to `COc1cc(-n2ccnc(NCCc3ccccc3)c2=O)ccc1NCCN1CCOCC1` [3-29], for which the IC50 was 63.1 nM.

With `CN[C@@H]1CCN(c2ccc(-n3ccnc(SCCc4ccccc4)c3=O)cc2OC)C1` [6-03], the IC50 is 12.6 nM. As to `COc1cccc(OCCCNc2nccn(-c3ccc(OCCN4CCCC4)c(OC)c3)c2=O)c1` [2-37], the IC50 was 398 nM.

Consider `COc1cc(-n2ccnc(NCCOc3ccccc3)c2=O)ccc1OCCN1CCCC1` [1-67], for which the IC50 was 63.1 nM. Next, `COCc1cc(-n2ccnc(NCCOc3ccccc3)c2=O)ccc1OCCN1CCCC1` [1-52]: 158 nM; `CN(CCOc1ccc(-n2ccnc(NCCOc3ccccc3)c2=O)cc1)CCc1ccccc1` [1-32]: 794 nM.

Take `CC(=O)N(C)C1CCN(c2ccc(-n3ccnc(NCCOc4ccccc4)c3=O)cn2)C1` (stereo not shown) [3-88]: the IC50 is 794 nM. Next, `COc1cc(-n2ccnc(NCCc3ccc(C(F)(F)F)cc3F)c2=O)ccc1OCCN1CCCC1` [2-43]: 794 nM; `COc1cc(-n2ccnc(NCCc3ccccc3)c2=O)ccc1OCCCN(C)C1CC1` [3-68]: 39.8 nM. With `COc1cc(-n2ccnc(NCCOc3ccccc3)c2=O)ccc1/C=C/CN1CCOCC1` [1-18] the figure was 39.8 nM; with `COc1cc(-n2ccnc(N3CCC(Oc4ccccc4)CC3)c2=O)ccc1OCCN1CCCC1` [4-02], 631 nM. With `COc1cc(-n2ccnc(NCCc3ccccc3)c2=O)ccc1OCCN1CCC(C(=O)N2CCCC2)CC1` [3-55] the figure was 25.1 nM. On to `O=c1c(NCCc2ccccc2)nccn1-c1ccc(N2CCNCC2)cc1` [3-06], for which the IC50 was 100 nM. With `COc1cc(-n2ccnc(SCCc3ccccc3)c2=O)ccc1N1CCC(O)C1` (stereo not shown) [6-01] the figure was 39.8 nM; with `COc1cc(-n2ccnc(NCCCOc3cccc(Cl)c3)c2=O)ccc1OCCN1CCCC1` [2-31], 25.1 nM; with `COc1cc(-n2ccnc(NCCOc3ccccc3)c2=O)ccc1OC1CCNCC1` [1-58], 63.1 nM. On to `COc1cc(-n2ccnc(NCCOc3ccccc3)c2=O)ccc1OCCCN1CCCC1` [1-75], for which the IC50 is 100 nM.

Consider `CN(C)CCN(C)CCOc1ccc(-n2ccnc(NCCOc3ccccc3)c2=O)cc1` [1-27], for which the IC50 is over 10000 nM. For the compound `CNC1CCN(c2ccc(-n3ccnc(NCCOc4ccccc4)c3=O)cc2OC)C1` (stereo not shown) [1-09], the IC50 is 20 nM. Next, `COc1cc(-n2ccnc(NCCOc3ccccc3)c2=O)ccc1OCCN(C)C(C)=O` [1-61]: 100 nM.

Consider `COc1cc(-n2ccnc(NCCOc3ccccc3)c2=O)ccc1N1CCC(N(C)C(=O)C2CC2)C1` (stereo not shown) [1-12], for which the IC50 was 79.4 nM. With `COc1cc(-n2ccnc(NCCOc3ccccc3)c2=O)ccc1OCC(C)N1CCCC1` (stereo not shown) [1-82] the figure was 63.1 nM; with `COc1cc(-n2ccnc(N3CCC(c4ccc(Cl)c(Cl)c4)C3)c2=O)ccc1OCCN1CCCC1` (stereo not shown) [4-08], 794 nM; with `CC(C)C(=O)N(C)C1CCN(c2ccc(-n3ccnc(NCCc4ccccc4)c3=O)cc2)C1` (stereo not shown) [3-04], 100 nM.

With `CCCN1CCC(Oc2ccc(-n3ccnc(SCCc4ccccc4)c3=O)cc2OC)C1` (stereo not shown) [6-17], the IC50 is 15.8 nM. With `COc1cc(-n2ccnc(NCCc3ccccc3)c2=O)ccc1C=CCN1CCCC1` [3-22], the IC50 was 31.6 nM. Next, `COc1cc(-n2ccnc(NCCc3cccc(Cl)c3)c2=O)ccc1OCCN1CCCC1` [2-23]: 50.1 nM. `O=c1c(NCCc2ccccc2)nccn1-c1ccc2c(c1)OCC(CN1CCOCC1)=C2` [3-92]: the IC50 was 79.4 nM. Next, `COc1cc(-n2ccnc(NCCc3ccccc3)c2=O)ccc1OCCN1CCOC(CO)C1` (stereo not shown) [3-64]: 100 nM; `COc1cc(-n2ccnc(NCCc3ccccc3)c2=O)ccc1N1CCC(N(C2CC2)C2CC2)C1` (stereo not shown) [3-18]: 158 nM; `COc1cc(-n2ccnc(NCCCOc3ccccc3Cl)c2=O)ccc1OCCN1CCCC1` [2-29]: 63.1 nM.

`O=c1c(NCCOc2ccccc2)nccn1-c1ccc(OCCN2CCC3(CC2)OCCO3)cc1` [1-43]: the IC50 was 200 nM.

Take `O=C1CCC(=O)N1CCOc1ccc(-n2ccnc(NCCOc3ccccc3)c2=O)cc1` [1-37]: the IC50 was 100 nM. With `CCN(C)C1CCN(c2ccc(-n3ccnc(NCCc4ccccc4)c3=O)cc2OC)C1` (stereo not shown) [3-14] the figure was 50.1 nM; with `COc1cc(-n2ccnc(NCCOc3ccccc3)c2=O)ccc1N1CCC(NC(=O)C(C)C)CC1` [1-15], 100 nM; with `COc1cc(-n2ccnc(NCCc3ccccc3)c2=O)ccc1OC[C@@H]1CCCN1C` [3-35], 25.1 nM. With `COc1cc(-n2ccnc(NCCCOc3ccccc3)c2=O)ccc1OCCN1CCCC1` [2-13] the figure was 15.8 nM.

As to `COc1cc(-n2ccnc(CCOc3ccccc3)c2=O)ccc1OCCN1CCCC1` [2-07], the IC50 is 79.4 nM. Next, `COc1cc(-n2ccnc(NCCOc3ccccc3)c2=O)ccc1OCCN(C)C(=O)C1CCCC1` [1-65]: 100 nM. With `COc1cc(-n2ccnc(NCCc3ccccc3)c2=O)ccc1OCCN1CCCC1C(N)=O` (stereo not shown) [3-48], the IC50 is 79.4 nM.

As for `COc1cc(-n2ccnc(NCCc3ccccc3)c2=O)ccc1OCCN1CCCC(C(N)=O)C1` (stereo not shown) [3-52], the IC50 is 39.8 nM. With `COc1cc(-n2ccnc(NCCOc3ccccc3)c2=O)ccc1N1CCC(N)CC1` [1-13] the figure was 79.4 nM.

In the case of `COc1cc(-n2ccnc(NCCc3ccccc3)c2=O)ccc1NC1CC2COCC(C1)N2` (stereo not shown) [3-27], the IC50 is 79.4 nM. For the compound `COCC(=O)NCCOc1ccc(-n2ccnc(NCCc3ccccc3)c2=O)cc1OC` [3-43], the IC50 was 200 nM. With `COc1cc(-n2ccnc(NCCCOc3ccc(Cl)cc3)c2=O)ccc1OCCN1CCCC1` [2-32] the figure was 63.1 nM; with `COc1cc(-n2ccnc(NCCc3ccccc3)c2=O)ccc1OCCCNC(=O)C1CC1` [3-69], 126 nM; with `COc1cc(-n2ccnc(NCCCOc3ccccc3)c2=O)ccc1OC1CCNCC1` [7-01], 31.6 nM. Take `CC(C)N1CCN(c2ccc(-n3ccnc(NCCOc4ccccc4)c3=O)cc2)CC1` [1-07]: the IC50 was 1580 nM. In the case of `COc1cc(-n2ccnc(N3CCC(c4cccc(C(F)(F)F)c4)C3)c2=O)ccc1OCCN1CCCC1` (stereo not shown) [4-05], the IC50 was 2000 nM.

Regarding `O=c1c(NCCOc2ccccc2)nccn1-c1ccc(OCCN2CCN(c3ccccc3)CC2)cc1` [1-45], the IC50 was 794 nM. Next, `COc1cc(-n2ccnc(NCCc3ccccc3)c2=O)ccc1OCCN1CC[C@@H](F)C1` [3-47]: 63.1 nM. With `O=c1c(NCCCOc2ccccc2)nccn1-c1ccc(OCCN2CCCC2)cc1` [2-12] the figure was 100 nM; with `CC(C)C(=O)N(C)C1CCN(c2ccc(-n3ccnc(NCCOc4ccccc4)c3=O)cc2)C1` (stereo not shown) [1-03], 39.8 nM; with `COc1cc(-n2ccnc(NCCc3ccccc3)c2=O)ccc1OCCN1CCC(C(=O)NC2CC2)CC1` [3-54], 20 nM.

In the case of `COc1cc(-n2ccnc(NCCc3ccccc3)c2=O)ccc1OCCN1CCC(C(N)=O)CC1` [3-53], the IC50 was 50.1 nM. With `COc1cc(-n2ccnc(NCCCOc3cccc(C#N)c3)c2=O)ccc1OCCN1CCCC1` [2-44] the figure was 79.4 nM; with `COc1cc(-n2ccnc(NCCc3ccc(Br)cc3)c2=O)ccc1OCCN1CCCC1` [2-21], 39.8 nM; with `COc1cc(-n2ccnc(SCCc3ccccc3)c2=O)ccc1N1CCC(N2C(C)CCCC2C)C1` (stereo not shown) [6-09], 31.6 nM. With `O=C1CCN(CCOc2ccc(-n3ccnc(NCCOc4ccccc4)c3=O)cc2)CC1` [1-40] the figure was 251 nM.

`COc1cc(-n2ccnc(SCCc3ccccc3)c2=O)ccc1N1CCOCC1` [6-10]: the IC50 is 63.1 nM. Regarding `CC(=O)c1cc(-n2ccnc(NCCOc3ccccc3)c2=O)ccc1OCCN1CCCC1` [1-53], the IC50 is 100 nM. Next, `CNC1CCN(c2ccc(-n3ccnc(NCCc4ccccc4)c3=O)cc2)C1` (stereo not shown) [3-02]: 50.1 nM; `CCN(CCOc1ccc(-n2ccnc(NCCOc3ccccc3)c2=O)cc1)Cc1ccncc1` [1-34]: 1000 nM; `CN(C)CCCNc1ccc(-n2ccnc(NCCOc3ccccc3)c2=O)cc1` [1-21]: 501 nM. With `C=CCc1cc(-n2ccnc(NCCOc3ccccc3)c2=O)ccc1OCCN1CCCC1` [1-49] the figure was 31.6 nM; with `CCCN(C)CCOc1ccc(-n2ccnc(NCCOc3ccccc3)c2=O)cc1` [1-24], 158 nM.
